Measurements published in the NIST ThermoML archive (doi:10.1021/acs.jced.9b00102).
Several values for one entry are separate records, joined by “and”; a condition that tells them apart may be missing. Identical values can stand only once. ± gives the expanded uncertainty stated by the source.

Assays:
[1] = Liquid, Ebulliometric method (Recirculating still)
[2] = refractive index (Na D-line) (dimensionless); conditions: 293.15 K; 101.33 kPa; Liquid; Standard Abbe refractometry

| vapor or sublimation pressure ([1]; 303.15 K) | vapor or sublimation pressure ([1]; 323.15 K) | vapor or sublimation pressure ([1]; 343.15 K) | refractive index [2] | vapor or sublimation pressure ([1]; 329.15 K) | vapor or sublimation pressure ([1]; 313.15 K) | Compound |
| --- | --- | --- | --- | --- | --- | --- |
| 2.01 ± 0.22 kPa | 7.11 ± 0.23 kPa | 20.47 ± 0.24 kPa | 1.3958 ± 0.002 | – | – | CC(C)CO [2-methyl-1-propanol] |
| 3.27 ± 0.23 kPa | – | 29.58 ± 0.26 kPa | 1.3976 ± 0.002 | 14.83 ± 0.23 kPa and 14.37 ± 0.23 kPa | – | CCC(C)O (stereo unspecified) [butan-2-ol] |
| 25.09 ± 0.28 kPa | 54.3 ± 0.29 kPa | 105.38 ± 0.71 kPa | 1.3725 ± 0.002 | 66.87 ± 0.39 kPa and 67.73 ± 0.39 kPa | – | CCCCCC [hexane] |
| 3.9 ± 0.22 kPa | 12.19 ± 0.23 kPa | – | 1.3853 ± 0.002 | – | 7.02 ± 0.23 kPa and 6.93 ± 0.23 kPa | CCCO [propan-1-ol] |
| 4.27 ± 0.22 kPa | 12.38 ± 0.23 kPa | – | 1.3333 ± 0.002 | – | 7.44 ± 0.23 kPa and 7.34 ± 0.23 kPa | O [water] |
